Activity calls are given as the source filed them. No cut-off for these calls is given here.
How the values were obtained:
Leishmania donovani [1] = test: Antileishmanial activity against Leishmania donovani MHOM/IN/80/Dd8 promastigotes harboring luciferase reporter gene assessed as inhibition of viability at 3.12 to 100 uM after 24 to 72 hrs by MTT assay relative to control; format: functional
[2] = Toxicity in BALB/c mouse infected with Leishmania donovani promastigotes assessed as serum ALT level at 50 mg/kg , ip measured after 3 to 7 weeks (rvb = 31 IU/L); format: organism-based; conditions: in vivo
Leishmania donovani [3] = test: Antileishmanial activity against Leishmania donovani MHOM/IN/80/Dd8 amastigotes harboring luciferase reporter gene infected in mouse J774 cells at 3.12 to 100 uM after 48 hrs by Steady-Glo luminescence assay relative to control; format: functional
[4] = Cytotoxicity against mouse J774 cells assessed as reduction in cell viability after 72 hrs by MTT assay; format: cell-based
[5] = Cytotoxicity against BALB/c mouse splenocytes assessed as cell viability at 200 uM after 72 hrs by MTT assay relative to control; format: cell-based, Splenocyte; conditions: read-out: Activity
[6] = Elimination rate constant in BALB/c mouse at 50 mg/kg, ip by HPLC analysis; format: ADME, organism-based; conditions: in vivo
[7] = Selectivity index, ratio of CC50 for African green monkey Vero cells to IC50 for antileishmanial activity against Leishmania donovani MHOM/IN/80/Dd8 amastigotes harboring luciferase reporter gene; format: toxicity; conditions: read-out: Ratio CC50/IC50
Mus musculus = test: Immunostimulatory activity in BALB/c mouse infected with Leishmania donovani promastigotes assessed as induction of TNF-alpha cytokine production at 50 mg/kg administered for 5 days starting at 15 days post infection and measured after 3 to 7 weeks by ELISA; format: functional, organism-based
[8] = Cytotoxicity against African green monkey Vero cells assessed as cell viability at 25 uM by MTT assay relative to control; format: cell-based; conditions: chlorocebus sabaeus, read-out: Activity
Leishmania donovani [9] = test: Antileishmanial activity against Leishmania donovani MHOM/IN/80/Dd8 promastigotes harboring luciferase reporter gene assessed as reduction in parasite viability after 48 hrs by MTT assay; format: functional, organism-based; conditions: MHOM/IN/80/Dd8, 48 h
Leishmania donovani [10] = test: Antileishmanial activity against Leishmania donovani MHOM/IN/80/Dd8 amastigotes harboring luciferase reporter gene infected in mouse J774 cells at 100 uM after 72 hrs by Steady-Glo luminescence assay relative to control; format: functional; conditions: MHOM/IN/80/Dd8, J774, 72 h
Leishmania donovani [11] = test: Induction of mitochondrial dysfunction in Leishmania donovani promastigotes assessed as reduction in mitochondrial membrane potential at 50 uM after 48 hrs by JC-1 staining-based flow cytometric analysis (reference value: 7.73%); format: functional; parameters: scale not given: the % may be the effect or the level left
[12] = Volume of distribution in BALB/c mouse at 50 mg/kg, ip by HPLC analysis; format: ADME, organism-based; conditions: in vivo
Leishmania donovani [13] = test: Induction of apoptosis in Leishmania donovani promastigotes assessed as late apoptotic cells at 50 uM after 24 hrs by Annexin-V/propidium iodide staining based flow cytometric method (reference value: 0.59%); format: functional
Leishmania donovani [14] = test: Induction of mitochondrial dysfunction in Leishmania donovani promastigotes assessed as reduction in mitochondrial membrane potential at 50 uM after 12 hrs by JC-1 staining-based flow cytometric analysis (reference value: 7.73%); format: functional; parameters: scale not given: the % may be the effect or the level left
Leishmania donovani [15] = test: (§1) Antileishmanial activity against Leishmania donovani promastigotes infected in BALB/c mouse assessed as reduction in parasite burden in spleen at 25 mg/kg, ip administered for 7 days starting at 15 days post-infection and measured after 1 week post last dose Giemsa staining-based assay relative to control; format: functional
[16] = Half life in mouse liver microsomes after 1 hr in presence of NADPH by UPLC analysis; format: ADME, Microsome
[17] = Stability in simulated intestinal fluid at 10 ug/ml measured after 2 hrs by UPLC analysis relative to control; format: ADME; conditions: read-out: Stability
[18] = Toxicity in golden hamster infected with Leishmania donovani amastigotes assessed as reduction in serum ALT level at 50 mg/kg , ip and measured after 10 weeks post infection (reference value: 216 U/L); format: organism-based, Mesocricetus auratus; conditions: in vivo, 1680 h
Leishmania donovani [19] = test: as §1, with “liver” for “spleen”; format: functional
[20] = Intrinsic clearance in mouse liver microsomes after 1 hr in presence of NADPH by UPLC analysis; format: ADME, Microsome
Leishmania donovani [21] = test: Induction of mitochondrial membrane depolarization in Leishmania donovani promastigotes assessed as swelling of mitochondria at 50 uM after 24 hrs by TEM analysis; format: functional, organism-based
[22] = Toxicity in BALB/c mouse infected with Leishmania donovani promastigotes assessed as effect on body weight at 12.5 to 200 mg/kg, ip administered for 7 days starting at 15 days post-infection; format: organism-based; conditions: in vivo
[23] = Toxicity in golden hamster infected with Leishmania donovani amastigotes assessed as effect on survival at 12.5 to 200 mg/kg, ip administered on alternative days for 4 weeks starting at 4 weeks post-infection; format: organism-based, Mesocricetus auratus; conditions: in vivo, 672 h
Leishmania donovani [24] = test: as §1, with “inhibition” for “reduction”, “liver” for “spleen”, “100” for “25”; format: functional
[25] = AUC(0 to infinity) in BALB/c mouse at 50 mg/kg, ip by HPLC analysis; format: ADME, organism-based; parameters: dose 50 mg/kg, route intraperitoneal, time infinity; conditions: in vivo
J774 [26] = test: Immunostimulatory activity in mouse J774 cells infected with Leishmania donovani promastigotes assessed as reduction in IL-10 cytokine production at 50 uM after 48 hrs by ELISA; format: functional, cell-based
Leishmania donovani [27] = test: Induction of mitochondrial membrane depolarization in Leishmania donovani promastigotes assessed as distorted mitochondria at 50 uM after 24 hrs by TEM analysis; format: functional, organism-based
Leishmania donovani [28] = test: Inhibition of ubiquinol cytochrome c reductase in Leishmania donovani promastigotes mitochondria at 8.1 to 50 uM using decylubiquinol as substrate in presence of cytochrome c
[29] = Cytotoxicity against African green monkey Vero cells assessed as cell viability up to 100 uM after 72 hrs by MTT assay relative to control; format: cell-based; conditions: chlorocebus sabaeus, read-out: Activity
[30] = Stability in mouse plasma at 10 ug/ml measured after 2 hrs by UPLC analysis relative to control; format: ADME, cell-free; conditions: read-out: Stability
[31] = Clearance in BALB/c mouse at 50 mg/kg, ip by HPLC analysis; format: ADME, organism-based; conditions: in vivo
J774 [32] = test: Immunostimulatory activity in mouse J774 cells infected with Leishmania donovani promastigotes assessed as reduction in TGF-beta cytokine production at 50 uM after 48 hrs by ELISA; format: functional, cell-based
Leishmania donovani [33] = test: Inhibition of ubiquinol cytochrome c reductase in Leishmania donovani promastigotes mitochondria at 50 uM using decylubiquinol as substrate in presence of cytochrome c relative to control
J774 [34] = test: Immunostimulatory activity in mouse J774 cells infected with Leishmania donovani promastigotes assessed as increase in TNF-alpha cytokine production at 50 uM after 48 hrs by ELISA; format: functional, cell-based
[35] = Half life in BALB/c mouse at 50 mg/kg, ip by HPLC analysis; format: ADME, organism-based; conditions: in vivo
Leishmania donovani [36] = test: Induction of apoptosis in Leishmania donovani promastigotes assessed as early apoptotic cells at 50 uM after 48 hrs by Annexin-V/propidium iodide staining based flow cytometric method (reference value: 5.79%); format: functional
Leishmania donovani [37] = test: Induction of ROS generation in Leishmania donovani promastigotes at 50 uM after 3 hrs by H2DCFDA probe based flow cytometry (reference value: 1.97%); format: functional

Compound: CCOC(=O)C(C(=O)c1ccc(OC)cc1)C(NC(C)=O)c1cccc2ccccc12 (stereo not drawn)
- inhibition (INH) (Leishmania donovani [1]): 95.4%
- Activity [2]: 17 to 177 IU/L
- inhibition (INH) (Leishmania donovani [3]): >92%
- CC50 at 72 h [4]: > 350 µM
- viability at 72 h, 200 µM [5]: > 84.3%
- k el [6]: 3.89e-05 s⁻¹
- selectivity ratio [7]: 25.7
- Activity (Mus musculus): inactive
- viability at 25 µM [8]: 99.2%
- IC50 (Leishmania donovani [9]): 9.1 µM
- inhibition at 100 µM (Leishmania donovani [10]): 95.9%
- Activity (Leishmania donovani [11]): 67.97%
- Vd [12]: 301.51 L/kg
- Activity (Leishmania donovani [13]): 0.8%
- Activity (Leishmania donovani [14]): 37.26%
- inhibition in vivo at 25 mg/kg (Leishmania donovani [15]): 68.5%
- half-life [16]: 313 min
- remaining at 2 h, 10 ug/ml [17]: 80.2%
- Activity [18]: 166 IU/L
- inhibition in vivo at 25 mg/kg (Leishmania donovani [19]): 67.6%
- CLH [20]: 0.015 mL/min/mg
- Activity (Leishmania donovani [21]): Active
- Activity [22]: Non-Toxic
- Activity [23]: Non-Toxic
- inhibition in vivo at 100 mg/kg (Leishmania donovani [24]): 92.1%
- AUC(0-inf) [25]: 1280 ng·h/mL
- Activity (J774 [26]): inactive
- Activity (Leishmania donovani [27]): Active
- inhibition (Leishmania donovani [28]): Active
- viability at 72 h [29]: > 93%
- remaining at 2 h, 10 ug/ml [30]: 81%
- CL/F [31]: 664 mL/min/kg
- Activity (J774 [32]): inactive
- inhibition (Leishmania donovani [33]): > 49%
- Activity (J774 [34]): inactive
- half-life [35]: 307 min
- Activity (Leishmania donovani [36]): 17.8%
- Activity (Leishmania donovani [37]): 7.49%
